In patent US12138286B2, “Combination method for treating or preventing childhood atopic disease” (Johnson & Johnson Consumer Inc., priority 2022, dated 2024):

System: high-risk infants
Design: species or system human
Details: in vivo
Text: High-risk infants were identified using parental history of atopic disease and were randomized to either the skin treatment regimen and composition or standard routine care, each set forth below, from soon after recruitment in the postnatal ward (approximately 4 day) until eight weeks of age. Both the intervention and standard of care groups were advised to use a standardized bathing routine for the first 2 months. • Skin treatment regimen and composition: twice daily whole-body application of […] & Long-Lasting Balm, which on pack contains the following ingredients: glycerin, aqua, cetearyl alcohol, isocetyl alcohol, dimethicone, cetyl alcohol, Avena sativa kernel flour, Avena sativa kernel extract, Avena sativa kernel oil, caprylic/capric triglyceride, ceramide 3, ethylhexylglycerin, p-anisic acid, sodium cetearyl sulfate, palmitic acid, stearic acid, sodium sulfate, sodium chloride, citric acid, dipotassium phosphate, potassium phosphate, sodium hydroxide, tocopherol, benzyl alcohol, benzoic acid, and potassium sorbate. • Control: Standard routine care, which involves no use of moisturizer for the first two months. Within approximately 4 days of birth, infants were randomized to either treatment with skin treatment regimen and composition or to standard routine skincare with no moisturizer until 2 months of age. […]

Infants advised to stop applying the emollient after developing a rash with a potential temporal relationship with the emollient: One
Parent-reported skin infections: 5%
Substance: AVEENO® Dermexa Fast & Long-Lasting Balm [Intervention]
